Reference: article PMC8112869, “Therapeutic inhibition of keratinocyte TRPV3 sensory channel by local anesthetic dyclonine” (eLife, 2021)

Tests used:
[1] = biological target: T1, TRPM8 (Rattus norvegicus, UniProt Q8R455); test: Whole-cell recording of menthol-activated TRPM8 in HEK 293T cells; assay type: cell-based
T1 construct: expressed in transfected cells; host or cells: HEK 293T
Description: (§1) The WT mouse TRPV3 (mTRPV3), human TRPV3 (hTRPV3), rat TRPV1, rat TRPV2, rat TRPM8, and mouse TRPA1 cDNAs were generously provided by Dr. Feng Qin (State University of New York at Buffalo, Buffalo, USA). The GFP-mTRPV3 WT and the mutants (mTRPV3-G573S and mTRPV3-G573C) in pcDNA4/TO vector were gifts from Dr. Michael X Zhu (The University of Texas Health Science Center at Houston, Houston, USA). The WT fTRPV3 was kindly provided by Dr. Makoto Tominaga (Department of Physiological Sciences, SOKENDAI, Okazaki, Japan). All mutations were made using the overlap-extension polymerase chain reaction method as previously described ([Tian et al., 2019]). The resulting mutations were then verified by DNA sequencing. […]
(§2) Conventional whole-cell and excised patch-clamp recording methods were used. […] For a subset of recordings, currents were amplified using an Axopatch 200B amplifier (Molecular Devices, Sunnyvale, CA) and recorded through a BNC-2090/MIO acquisition system (National Instruments, Austin, TX) using QStudio developed by Dr. Feng Qin at State University of New York at Buffalo. […] As determined by the conductance tests, the solution around a patch under study was fully controlled by the application of a flow rate of 100 μl/min or greater. […]

[2] = biological target: T2, TRPV3 I659A (Mus musculus, UniProt Q8K424, I659A); test: Whole-cell recording of TRPV3 mutant I659A in HEK 293T cells; assay type: cell-based; conditions: 2-APB (1 mM)-evoked, –60 mV, read-out: IC50 for inhibition of TRPV3 mutant
T2 construct: expressed in transfected cells; host or cells: HEK 293T
Description: as §1, §2

[3] = biological target: T3, TRPV1 (Rattus norvegicus, UniProt O35433); test: Whole-cell recording of capsaicin-activated TRPV1 in HEK 293T cells; assay type: cell-based
T3 construct: expressed in transfected cells; host or cells: HEK 293T
Description: as §1, §2

[4] = system: mouse dorsal root ganglia (DRG) and trigeminal ganglia (TG) neurons; test: Current-clamp recording of mouse DRG and TG neurons; assay type: cell-based; conditions: dyclonine 10 μM
[5] = biological target: T4, human TRPV3 (hTRPV3) (Homo sapiens, UniProt Q8NET8); test: Whole-cell recording of 2-APB-evoked currents in hTRPV3-expressing HEK 293T cells; assay type: cell-based
T4 construct: expressed in transfected cells; host or cells: HEK 293T
Description: as §1, §2

[6] = system: C57B/6 mice; test: Carvacrol-induced itch-scratching behavior in mice; assay type: in vivo, mouse
Experimental: To assess itch-scratching behaviors, the hair of the rostral part of the mouse’s right neck was shaved using an electric hair clipper 24 hr before the start of experiments. Trpv3^-/- mice have been described previously ([Wang et al., 2021]). Scratching behaviors were recorded on video. The number of itch-scratching bouts was counted through video playback analysis. One scratching bout was defined as an episode in which a mouse lifted its right hind limb to the injection site and scratched continuously for any time length until this limb was returned to the floor or mouth ([Wilson et al., 2013]). All behavioral experiments were conducted in a double-blind manner. […] [Sun and Dong, 2016]).

T4 sequence (Q8NET8 whole entry): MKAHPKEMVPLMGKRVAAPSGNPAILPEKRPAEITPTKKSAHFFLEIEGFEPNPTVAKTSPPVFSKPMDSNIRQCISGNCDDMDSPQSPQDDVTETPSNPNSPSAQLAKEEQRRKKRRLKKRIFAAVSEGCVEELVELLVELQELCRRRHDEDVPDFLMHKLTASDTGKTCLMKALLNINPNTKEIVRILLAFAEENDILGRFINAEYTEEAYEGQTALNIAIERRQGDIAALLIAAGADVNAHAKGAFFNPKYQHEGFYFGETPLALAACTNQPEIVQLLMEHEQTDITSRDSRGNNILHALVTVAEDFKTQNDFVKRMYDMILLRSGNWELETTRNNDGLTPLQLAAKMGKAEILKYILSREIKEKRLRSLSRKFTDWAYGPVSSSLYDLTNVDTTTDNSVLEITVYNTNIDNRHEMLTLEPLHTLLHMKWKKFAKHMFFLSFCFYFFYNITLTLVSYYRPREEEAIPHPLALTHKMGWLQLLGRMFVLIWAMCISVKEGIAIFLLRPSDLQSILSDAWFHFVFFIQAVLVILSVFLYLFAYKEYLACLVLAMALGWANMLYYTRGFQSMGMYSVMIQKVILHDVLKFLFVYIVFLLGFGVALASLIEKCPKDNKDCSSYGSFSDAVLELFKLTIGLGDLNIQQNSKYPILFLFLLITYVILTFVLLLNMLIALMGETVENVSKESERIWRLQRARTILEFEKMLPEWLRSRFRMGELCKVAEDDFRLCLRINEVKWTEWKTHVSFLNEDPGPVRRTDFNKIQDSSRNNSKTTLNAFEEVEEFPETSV
T3 sequence (O35433 whole entry): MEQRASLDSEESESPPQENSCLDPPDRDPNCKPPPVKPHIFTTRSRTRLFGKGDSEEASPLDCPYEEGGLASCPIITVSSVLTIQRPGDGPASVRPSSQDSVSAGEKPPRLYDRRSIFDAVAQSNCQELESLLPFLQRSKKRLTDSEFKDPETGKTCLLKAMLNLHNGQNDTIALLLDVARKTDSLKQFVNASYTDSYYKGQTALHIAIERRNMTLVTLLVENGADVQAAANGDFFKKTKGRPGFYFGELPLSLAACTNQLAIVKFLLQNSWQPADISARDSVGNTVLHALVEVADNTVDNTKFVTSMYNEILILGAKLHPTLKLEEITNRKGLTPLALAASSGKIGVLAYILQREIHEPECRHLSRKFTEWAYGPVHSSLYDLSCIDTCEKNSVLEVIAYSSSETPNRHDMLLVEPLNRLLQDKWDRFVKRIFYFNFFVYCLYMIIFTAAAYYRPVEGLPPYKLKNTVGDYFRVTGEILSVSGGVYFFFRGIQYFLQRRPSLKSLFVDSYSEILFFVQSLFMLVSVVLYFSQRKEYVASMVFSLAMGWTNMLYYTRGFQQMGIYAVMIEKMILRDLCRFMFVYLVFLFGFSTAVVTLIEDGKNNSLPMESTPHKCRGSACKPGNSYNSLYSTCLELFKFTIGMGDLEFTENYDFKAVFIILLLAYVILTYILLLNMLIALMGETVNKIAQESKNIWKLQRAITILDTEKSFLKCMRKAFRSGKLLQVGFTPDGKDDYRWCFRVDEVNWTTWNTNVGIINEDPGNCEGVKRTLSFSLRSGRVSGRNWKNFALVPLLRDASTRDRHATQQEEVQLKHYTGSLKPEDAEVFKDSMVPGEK
T1 sequence (Q8R455 whole entry): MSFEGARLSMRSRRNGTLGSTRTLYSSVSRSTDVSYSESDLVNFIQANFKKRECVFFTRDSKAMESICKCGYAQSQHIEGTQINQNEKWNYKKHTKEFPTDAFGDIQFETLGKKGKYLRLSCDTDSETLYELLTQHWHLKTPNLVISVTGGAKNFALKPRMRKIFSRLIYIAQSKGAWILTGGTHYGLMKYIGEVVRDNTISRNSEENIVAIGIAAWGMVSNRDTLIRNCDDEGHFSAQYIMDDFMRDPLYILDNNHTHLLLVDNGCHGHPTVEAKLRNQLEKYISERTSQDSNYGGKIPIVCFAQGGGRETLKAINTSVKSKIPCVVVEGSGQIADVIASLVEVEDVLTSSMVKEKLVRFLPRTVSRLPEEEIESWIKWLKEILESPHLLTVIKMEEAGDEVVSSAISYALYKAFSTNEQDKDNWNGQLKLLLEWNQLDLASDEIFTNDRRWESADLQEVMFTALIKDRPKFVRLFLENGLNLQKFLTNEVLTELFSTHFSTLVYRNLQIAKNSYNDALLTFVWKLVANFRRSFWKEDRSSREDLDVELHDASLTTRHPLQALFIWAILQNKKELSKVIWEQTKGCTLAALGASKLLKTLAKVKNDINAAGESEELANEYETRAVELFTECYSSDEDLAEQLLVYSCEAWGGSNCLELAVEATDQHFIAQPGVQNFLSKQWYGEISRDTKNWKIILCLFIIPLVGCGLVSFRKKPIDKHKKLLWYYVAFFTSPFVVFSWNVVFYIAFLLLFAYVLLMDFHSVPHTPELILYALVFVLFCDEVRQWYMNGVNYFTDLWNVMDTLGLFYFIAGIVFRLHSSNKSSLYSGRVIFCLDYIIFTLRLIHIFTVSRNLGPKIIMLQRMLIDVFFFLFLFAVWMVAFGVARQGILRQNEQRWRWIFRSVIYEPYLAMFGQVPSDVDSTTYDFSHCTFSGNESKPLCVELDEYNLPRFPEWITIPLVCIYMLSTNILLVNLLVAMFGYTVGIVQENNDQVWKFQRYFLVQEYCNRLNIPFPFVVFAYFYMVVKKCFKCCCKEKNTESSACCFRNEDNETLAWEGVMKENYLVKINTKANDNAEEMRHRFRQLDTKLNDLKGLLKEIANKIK
T2 sequence (Q8K424 whole entry I659A): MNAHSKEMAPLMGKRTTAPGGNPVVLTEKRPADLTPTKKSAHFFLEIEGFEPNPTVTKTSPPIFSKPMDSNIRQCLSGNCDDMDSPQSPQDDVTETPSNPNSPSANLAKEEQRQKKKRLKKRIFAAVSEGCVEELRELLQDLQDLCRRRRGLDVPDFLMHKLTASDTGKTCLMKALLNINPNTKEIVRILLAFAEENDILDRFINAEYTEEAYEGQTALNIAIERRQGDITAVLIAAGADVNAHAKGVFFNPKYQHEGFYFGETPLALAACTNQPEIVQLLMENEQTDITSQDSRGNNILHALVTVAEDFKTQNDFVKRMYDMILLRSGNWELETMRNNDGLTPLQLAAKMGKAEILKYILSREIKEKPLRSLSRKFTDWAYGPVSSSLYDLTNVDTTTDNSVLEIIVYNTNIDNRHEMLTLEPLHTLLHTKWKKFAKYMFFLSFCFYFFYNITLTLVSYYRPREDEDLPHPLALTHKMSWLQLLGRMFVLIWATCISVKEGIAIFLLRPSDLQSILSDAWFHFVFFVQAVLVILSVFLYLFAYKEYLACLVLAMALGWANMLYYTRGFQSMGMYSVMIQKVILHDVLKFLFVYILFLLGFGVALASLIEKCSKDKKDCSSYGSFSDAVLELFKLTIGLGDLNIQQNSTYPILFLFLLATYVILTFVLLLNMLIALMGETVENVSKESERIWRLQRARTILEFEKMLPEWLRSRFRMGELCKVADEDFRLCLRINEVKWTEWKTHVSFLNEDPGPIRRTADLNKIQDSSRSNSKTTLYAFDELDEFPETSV

## CCCCOc1ccc(C(=O)CCN2CCCCC2)cc1 [dyclonine]
[1]
  Hill coefficient nH: 1.2 ± 0.20
[1]; 10 μM dyclonine, menthol-activated
  reduction in current amplitude: 9% ± 2%
[2]
  IC50: 560 ± 60 nM
[3]
  Hill coefficient nH: 2.0 ± 0.31
[3]; 10 μM dyclonine, capsaicin-activated
  reduction in current amplitude: 2% ± 1%
[4]; DRG and TG neurons
  effect on electrophysiological responses: little effect
[4]; DRG neurons
  resting membrane potential (RMP): –45 ± 0.9 mV
[4]; TG neurons
  resting membrane potential (RMP): –47.2 ± 1.9 mV
[5]
  Hill coefficient nH: 1.91 ± 0.14
[5]; 2-APB (100 μM)-evoked, –60 mV, read-out: IC50 on blocking of hTRPV3
  IC50: 16.2 ± 0.72 µM
[6]; 50 μl dyclonine 1 μM intradermal 30 min before carvacrol (0.1%, 50 μl)
  scratching bouts over 30 min: 130.0 ± 20.3
[6]; 50 μl dyclonine 10 μM intradermal 30 min before carvacrol (0.1%, 50 μl)
  scratching bouts over 30 min: 82.0 ± 15.0
[6]; 50 μl dyclonine 50 μM intradermal 30 min before carvacrol (0.1%, 50 μl)
  scratching bouts over 30 min: 18.0 ± 8.0
